{"source": "patent US20220400680A1", "about": "“USE OF ACYLCYANAMIDES OR SALTS THEREOF FOR REGULATING PLANT GROWTH” (Alzchem Trostberg GmbH, priority 2019, published 2022)", "key": {"[1]": {"tested_on": "table grapes types Bordon AR and Hammar AR", "test": "Field test E3 table grapes India, bud burst", "set-up": "species or system Vitis vinifera", "conditions": "in vivo", "method": "Three sections of a table grape plantation in India with types Bordon AR and Hammar AR were treated with the following spray mixtures during the dormancy phase:\nE3-0: 600 liters per hectare of water with an addition of 0.1% Break-Thru® OE-446 E3-1: 600 liters per hectare of the spray mixture from example D-1 E3-18: 600 liters per hectare of the spray mixture from example D-18\n(§1) As a result, the grapevine sprouts were evenly wetted.\nAfter 30 and 45 days, respectively, bud burst was recorded numerically.\n(§2) Budding means number of buds that have developed at least one leaf after n days, based on the total number of buds on the sprouts at time n=0 days (day of application of spray mixture)."}, "[2]": {"tested_on": "Table cherry, type Burlat (C3)", "test": "Greenhouse test, cut cherry branches C3 dipped in test solution, bud development stage", "type": "in vivo, Prunus avium", "set-up": "key to Bud development stage, cherry branches C3: Stage 0: Buds unchanged; Stage 1: Buds slightly swollen, first green tips visible; Stage 2: strongly swollen, green buds; Stage 3: Buds before breaking open, leaf or flower root already visible; Stage 4: Flower buds fully developed, but still closed, white petals already visible. In the case of the grapevine, stage 4 was the unfolding of the first leaves; Stage 5: Flowers fully open or, in the case of grapevine, unfolding of the flower roots (“Gescheine”) on the fully leafed sprouts", "method_in_brief": "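Cut branches kept in water jars in a greenhouse at about 22° C. under natural light after dipping in aqueous solution of 0.15 mol test substance (0.075 mol for bis-cyanamides) plus 0.15 g BreakThru OE-446 per 500 g. Bud development scored on a stage scale from closed buds to fully open flowers.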"}, "[3]": {"tested_on": "Grape, type Pinot Noir (C4)", "test": "Greenhouse test, cut wine sprouts C4 dipped in test solution, bud development stage", "type": "in vivo, Vitis vinifera subsp. vinifera", "set-up": "key to Bud development stage, wine sprouts C4: Stage 0: Buds unchanged; Stage 1: Buds slightly swollen, first green tips visible; Stage 2: strongly swollen, green buds; Stage 3: Buds before breaking open, leaf or flower root already visible; Stage 4: Flower buds fully developed, but still closed, white petals already visible. In the case of the grapevine, stage 4 was the unfolding of the first leaves; Stage 5: Flowers fully open or, in the case of grapevine, unfolding of the flower roots (“Gescheine”) on the fully leafed sprouts", "method_in_brief": "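Cut Pinot Noir grapevine sprouts were dipped in aqueous test solution (0.15 mol test substance, or 0.075 mol for bis-cyanamides, plus 0.15 g BreakThru OE-446 per 500 g total) and kept in water jars at about 22° C under natural light. Bud development was scored on a staged scale from closed buds to fully open flowers.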"}, "[4]": {"tested_on": "table grapes type Red Globe", "test": "Field test E2 table grapes Spain, bud burst", "set-up": "species or system Vitis vinifera", "conditions": "in vivo", "method": "Three sections of a table grape plantation in southern Spain (type Red Globe) were treated with the following spray mixtures during the dormancy phase 45 days before natural bud burst (February 5):\nE2-0: 600 liters per hectare of water with an addition of 0.1% Break-Thru® OE-446 E2-1: 600 liters per hectare of the spray mixture from example D-1 E2-18: 600 liters per hectare of the spray mixture from example D-18\nas §1\nOn April 3, bud burst was recorded numerically.\nas §2"}, "[5]": {"conditions": "T1 (14 d), 0.15 mol (A-14, A-15: 0.075 mol) per 500 g solution"}}}
{"smiles": "CC(=O)NC#N.[Na]", "note": "[Example A-1, Sodium Acetylcyanamide]", "values": [{"measurement": "Effectiveness compared with prior art treatment with cyanamide", "setting": "[1]", "value": "at least as effective as the prior art treatment with cyanamide"}, {"measurement": "Bud development stage, cherry branches C3", "setting": "[2]; [5]", "value": 1}, {"measurement": "Bud development stage, cherry branches C3", "setting": "[2]; T2 (16 d)", "value": 2}, {"measurement": "Bud development stage, cherry branches C3", "setting": "[2]; T3 (21 d)", "value": 5}, {"measurement": "Bud development stage, cherry branches C3", "setting": "[2]; T4 (27 d)", "value": 5}, {"measurement": "Bud development stage, cherry branches C3", "setting": "[2]; T5 (36 d)", "value": 5}, {"measurement": "Bud development stage, cherry branches C3", "setting": "[2]; T6 (56 d)", "value": 5}, {"measurement": "Good to very good dormancy-breaking effect, cherry C3", "setting": "[2]; stage 4 reached or exceeded after 21 days vs negative control", "value": "good to very good dormancy-breaking effect"}, {"measurement": "Dormancy-breaking effect according to the definition, cherry C3", "setting": "[2]; stage 4 reached or exceeded after 27 days vs negative control", "value": "dormancy-breaking effect"}, {"measurement": "Bud development stage, wine sprouts C4", "setting": "[3]; [5]", "value": 0}, {"measurement": "Bud development stage, wine sprouts C4", "setting": "[3]; T2 (16 d)", "value": 0}, {"measurement": "Bud development stage, wine sprouts C4", "setting": "[3]; T3 (21 d)", "value": 0}, {"measurement": "Bud development stage, wine sprouts C4", "setting": "[3]; T4 (27 d)", "value": 1}, {"measurement": "Bud development stage, wine sprouts C4", "setting": "[3]; T5 (36 d)", "value": 4}, {"measurement": "Bud development stage, wine sprouts C4", "setting": "[3]; T6 (56 d)", "value": 5}, {"measurement": "Dormancy-breaking effect according to the definition, wine C4", "setting": "[3]; stage 4 reached or exceeded after 36 days vs negative control", "value": "dormancy-breaking effect"}, {"measurement": "Effectiveness compared with prior art treatment with cyanamide", "setting": "[4]", "value": "as effective as the prior art treatment with cyanamide"}]}
